The values below come from US20250320189A1, “NEW DERIVATIVES FOR TREATING TRPM3 MEDIATED DISORDERS” (Katholieke Universiteit Leuven, priority 2022, published 2025).

Where only a bound is given, the exact number is not on record here.

T1 sequence (J9SQF3 1-1709 isoform J9SQF3-12): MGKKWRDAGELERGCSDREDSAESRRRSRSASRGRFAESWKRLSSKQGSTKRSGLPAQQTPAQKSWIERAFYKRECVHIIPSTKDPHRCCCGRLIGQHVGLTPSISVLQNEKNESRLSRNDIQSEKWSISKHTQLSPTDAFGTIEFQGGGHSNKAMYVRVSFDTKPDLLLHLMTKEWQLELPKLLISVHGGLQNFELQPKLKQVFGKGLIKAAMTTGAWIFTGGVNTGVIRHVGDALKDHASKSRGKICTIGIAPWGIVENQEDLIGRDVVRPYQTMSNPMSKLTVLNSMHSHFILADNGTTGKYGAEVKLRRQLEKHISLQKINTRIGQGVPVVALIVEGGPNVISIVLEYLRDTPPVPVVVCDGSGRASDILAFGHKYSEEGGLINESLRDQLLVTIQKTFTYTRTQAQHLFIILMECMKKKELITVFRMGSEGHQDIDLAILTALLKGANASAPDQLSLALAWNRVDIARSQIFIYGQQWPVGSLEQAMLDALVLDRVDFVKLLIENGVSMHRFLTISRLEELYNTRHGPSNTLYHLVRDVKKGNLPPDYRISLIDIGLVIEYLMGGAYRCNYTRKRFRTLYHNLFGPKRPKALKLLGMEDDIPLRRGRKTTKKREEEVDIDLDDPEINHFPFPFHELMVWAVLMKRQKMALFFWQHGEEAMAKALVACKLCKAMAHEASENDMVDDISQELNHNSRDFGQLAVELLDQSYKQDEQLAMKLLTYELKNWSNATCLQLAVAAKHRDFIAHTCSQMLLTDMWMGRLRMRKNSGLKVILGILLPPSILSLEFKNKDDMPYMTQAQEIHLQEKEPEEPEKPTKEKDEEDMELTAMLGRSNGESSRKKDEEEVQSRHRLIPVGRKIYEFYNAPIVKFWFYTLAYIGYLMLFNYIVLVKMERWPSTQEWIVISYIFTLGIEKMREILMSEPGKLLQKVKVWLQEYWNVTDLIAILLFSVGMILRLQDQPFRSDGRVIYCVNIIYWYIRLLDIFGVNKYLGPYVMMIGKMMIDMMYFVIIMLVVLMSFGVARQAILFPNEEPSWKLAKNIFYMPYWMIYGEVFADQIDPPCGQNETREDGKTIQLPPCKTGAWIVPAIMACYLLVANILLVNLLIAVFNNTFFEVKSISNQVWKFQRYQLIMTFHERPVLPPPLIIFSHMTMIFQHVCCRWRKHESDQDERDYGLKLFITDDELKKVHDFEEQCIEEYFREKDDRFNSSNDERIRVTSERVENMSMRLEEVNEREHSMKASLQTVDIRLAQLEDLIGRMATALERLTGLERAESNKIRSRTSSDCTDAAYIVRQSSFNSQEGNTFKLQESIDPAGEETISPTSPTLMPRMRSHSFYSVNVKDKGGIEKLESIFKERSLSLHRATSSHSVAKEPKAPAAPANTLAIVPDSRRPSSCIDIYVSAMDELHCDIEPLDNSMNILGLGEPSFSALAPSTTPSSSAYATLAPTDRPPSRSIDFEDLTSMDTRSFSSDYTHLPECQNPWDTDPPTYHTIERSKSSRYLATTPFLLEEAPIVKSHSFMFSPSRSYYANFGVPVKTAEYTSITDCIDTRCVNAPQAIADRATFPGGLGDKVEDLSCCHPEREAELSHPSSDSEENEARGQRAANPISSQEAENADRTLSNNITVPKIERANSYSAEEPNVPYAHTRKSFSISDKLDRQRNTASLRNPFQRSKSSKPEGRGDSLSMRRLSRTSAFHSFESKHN

This assay has as its target T1, mouse TRPM3α2 (mTRPM3) ion channel (Mus musculus, UniProt J9SQF3).
T1 construct: expressed in transfected cells; host or cells: flip-in (Flp-In) HEK293
In words: Monitoring the TRPM3 ion channel driven Ca2+ uptake (Fluo-4 AM assay). It counts as cell-based. Particulars: mTRPM3alpha2 overexpressing flip-in HEK293 cells, stimulated with Pregnenolone sulfate (PS) 50 μM. How it is done:
In order to monitor the inhibition of the mouse TRPM3α2 (mTRPM3) ion channel by the compounds of the invention, a cellular system making use of an mTRPM3alpha2 or hTRPM3 overexpressing cell line (flip-in HEK293) was used. The TRPM3 channel was stimulated/opened with Pregnenolone sulfate (PS) (50 μM) which results in Ca^2+ influx.
For mTRPM3, the intracellular Ca^2+ was measured with a Calcium responsive dye, Fluor-4 AMV ester (Invitrogen). Cells were cultured until a confluence of 80-90%, washed with Versene (Invitrogen) and detached from the surface by a short incubation with 0.05% Trypsin (Invitrogen). The trypsination process was stopped by the addition of complete cell culture medium (DMEM, glutamax, 10% FCS, NEAA,Pen-Strep). Cells were collected and resuspended in Krebs buffer without Calcium at RT.
Prior the cell seeding (±2000 cells/well into a black, 384 well plate (Greiner)) the diluted compound was added in the assay plate, together with the PS dissolved in Krebs buffer containing Calcium. […] Directly after cell addition the plates were read on an Envision fluorescence reader (PerkinElmer) by an Excitation of 485 nm and emission at 535 nm.
Channel inhibition was calculated compared to a non-PS stimulated control versus a condition stimulated with PS (50 μM) with vehicle. The ability of the compounds of the invention to inhibit this activity was determined as: Percentage inhibition=[1−((RFU determined for sample with test compound present−RFU determined for sample with positive control inhibitor) divided by (RFU determined in the presence of vehicle−RFU determined for sample with positive control inhibitor))]*100.
The activities of the Example compounds tested are depicted in the table below. The activity ranges A, B and C refer to IC50 values in the Fluo-4 AM assay as follows: “A”: IC50<1 μM; “B”: 1 μM≤IC50≤20 μM and “C”: IC50>20 μM
`Cc1oc2ccc(OCC3CC3(F)F)cc2c1C(=O)N[C@@H](CO)C(N)=O` (single isomer, unassigned) [Cpd 002 - En1] registered an IC50 of under 1 µM. In the case of `Cc1oc2ccc(OCC3CC3(F)F)cc2c1C(=O)N[C@@H](CO)C(N)=O` (single isomer, unassigned) [Cpd 002 - En2], the 50% inhibitory concentration (IC50) was under 1 µM. On to `Cc1oc2ccc(OCC3(C(F)F)CC3)cc2c1C(=O)NC(C)(CO)C(N)=O` (single isomer, unassigned) [Cpd 014 - En1, 2-[(5-{[1-(difluoromethyl)cyclopropyl]methoxy}-2-methyl-1-benzofuran-3-yl)formamido]-3-hydroxy-2-methylpropanamide], for which the IC50 is under 1 µM.

`Cc1oc2ccc(OCC3(C(F)F)CC3)cc2c1C(=O)NC(C)(CO)C(N)=O` (single isomer, unassigned) [Cpd 014 - En2, 2-[(5-{[1-(difluoromethyl)cyclopropyl]methoxy}-2-methyl-1-benzofuran-3-yl)formamido]-3-hydroxy-2-methylpropanamide] had a half-maximal inhibitory concentration (IC50) of under 1 µM.

In turn, `Cc1oc2ccc(OCC3CC3)cc2c1C(=O)NC(C)(CO)C(N)=O` (single isomer, unassigned) [Cpd 017 - En1, 2-{[5-(cyclopropylmethoxy)-2-methyl-1-benzofuran-3-yl]formamido}-3-hydroxy-2-methylpropanamide] registered a half-inhibitory concentration (IC50) of under 1 µM.

`Cc1oc2ccc(OCC3CC3)cc2c1C(=O)NC(C)(CO)C(N)=O` (single isomer, unassigned) [Cpd 017 - En2, 2-{[5-(cyclopropylmethoxy)-2-methyl-1-benzofuran-3-yl]formamido}-3-hydroxy-2-methylpropanamide] registered an IC50 of under 1 µM. In the case of `Cc1oc2ccc(OCC3CCC3)cc2c1C(=O)NC1CCNCC1(F)F` (single isomer, unassigned) [Cpd 019 - En1, 5-(cyclobutylmethoxy)-N-(3,3-difluoropiperidin-4-yl)-2-methyl-1-benzofuran-3-carboxamide], the IC50 was in the range of 1 to 20 µM.

The compound `Cc1oc2ccc(OCC3CCC3)cc2c1C(=O)NC1CCNCC1(F)F` (single isomer, unassigned) [Cpd 019 - En2, 5-(cyclobutylmethoxy)-N-(3,3-difluoropiperidin-4-yl)-2-methyl-1-benzofuran-3-carboxamide] registered a 50% inhibitory concentration (IC50) of under 1 µM. The compound `Cc1oc2ccc(OCC3CC3)cc2c1C(=O)NC1CCNCC1(F)F` (single isomer, unassigned) [Cpd 024-En1, 5-(cyclopropylmethoxy)-N-(3,3-difluoropiperidin-4-yl)-2-methyl-1-benzofuran-3-carboxamide] showed a half-inhibitory concentration (IC50) of 1 to 20 µM. The value for `Cc1oc2ccc(OCC3CC3)cc2c1C(=O)NC1CCNCC1(F)F` (single isomer, unassigned) [Cpd 024-En2, 5-(cyclopropylmethoxy)-N-(3,3-difluoropiperidin-4-yl)-2-methyl-1-benzofuran-3-carboxamide] was under 1 µM. Take `Cc1oc2ccc(OCC3CC3)cc2c1C(=O)NC1(CO)CCCNC1=O` (single isomer, unassigned) [Cpd 027 - En1, 5-(cyclopropylmethoxy)-N-[3-(hydroxymethyl)-2-oxopiperidin-3-yl]-2-methyl-1-benzofuran-3-carboxamide]: the 50% inhibitory concentration (IC50) is under 1 µM.

Take `Cc1oc2ccc(OCC3CC3)cc2c1C(=O)NC1(CO)CCCNC1=O` (single isomer, unassigned) [Cpd 027 - En2, 5-(cyclopropylmethoxy)-N-[3-(hydroxymethyl)-2-oxopiperidin-3-yl]-2-methyl-1-benzofuran-3-carboxamide]: the half-maximal inhibitory concentration (IC50) fell in the range of 1 to 20 µM. The value for `Cc1oc2ccc(OCC3CC3)cc2c1C(=O)NC1(CO)CCNC1=O` (single isomer, unassigned) [Cpd 028 - En1, 5-(cyclopropylmethoxy)-N-[3-(hydroxymethyl)-2-oxopyrrolidin-3-yl]-2-methyl-1-benzofuran-3-carboxamide] was under 1 µM; that for `Cc1oc2ccc(OCC3CC3)cc2c1C(=O)NC1(CO)CCNC1=O` (single isomer, unassigned) [Cpd 028 - En2, 5-(cyclopropylmethoxy)-N-[3-(hydroxymethyl)-2-oxopyrrolidin-3-yl]-2-methyl-1-benzofuran-3-carboxamide] was under 1 µM. On to `Cc1oc2ccc(OCC3CC3(F)F)cc2c1C(=O)NC1CCNCC1(F)F` (single isomer, unassigned) [Cpd 031 - En1, 5-[(2,2-difluorocyclopropyl)methoxy]-N-(3,3-difluoropiperidin-4-yl)-2-methyl-1-benzofuran-3-carboxamide], for which the IC50 was 1 to 20 µM.

`Cc1oc2ccc(OCC3CC3(F)F)cc2c1C(=O)NC1CCNCC1(F)F` (single isomer, unassigned) [Cpd 031 - En2, 5-[(2,2-difluorocyclopropyl)methoxy]-N-(3,3-difluoropiperidin-4-yl)-2-methyl-1-benzofuran-3-carboxamide] came in with an IC50 of under 1 µM.

Consider `Cc1oc2ccc(OCC3CC3(F)F)cc2c1C(=O)NC1CCNCC1(F)F` (single isomer, unassigned) [Cpd 031 - En3, 5-[(2,2-difluorocyclopropyl)methoxy]-N-(3,3-difluoropiperidin-4-yl)-2-methyl-1-benzofuran-3-carboxamide], for which the IC50 is 1 to 20 µM. For `Cc1oc2ccc(OCC3CC3(F)F)cc2c1C(=O)NC1CCNCC1(F)F` (single isomer, unassigned) [Cpd 031 - En4, 5-[(2,2-difluorocyclopropyl)methoxy]-N-(3,3-difluoropiperidin-4-yl)-2-methyl-1-benzofuran-3-carboxamide], the half-inhibitory concentration (IC50) is under 1 µM. As for `Cc1oc2ccc(OCC3(C)CC3)cc2c1C(=O)NC1CCNCC1(F)F` (single isomer, unassigned) [Cpd 032 - En1, N-(3,3-difluoropiperidin-4-yl)-2-methyl-5-[(1-methylcyclopropyl)methoxy]-1-benzofuran-3-carboxamide], the IC50 was under 1 µM. `Cc1oc2ccc(OCC3(C)CC3)cc2c1C(=O)NC1CCNCC1(F)F` (single isomer, unassigned) [Cpd 032 - En2, N-(3,3-difluoropiperidin-4-yl)-2-methyl-5-[(1-methylcyclopropyl)methoxy]-1-benzofuran-3-carboxamide] displayed a half-inhibitory concentration (IC50) of 1 to 20 µM. Take `Cc1oc2ccc(OCC3CC3(C)C)cc2c1C(=O)NC1CCNCC1(F)F` (single isomer, unassigned) [Cpd 033-En1, N-(3,3-difluoropiperidin-4-yl)-5-[(2,2-dimethylcyclopropyl)methoxy]-2-methyl-1-benzofuran-3-carboxamide]: the half-maximal inhibitory concentration (IC50) lay in the range of 1 to 20 µM. Compound `Cc1oc2ccc(OCC3CC3(C)C)cc2c1C(=O)NC1CCNCC1(F)F` (single isomer, unassigned) [Cpd 033-En2, N-(3,3-difluoropiperidin-4-yl)-5-[(2,2-dimethylcyclopropyl)methoxy]-2-methyl-1-benzofuran-3-carboxamide] displayed an IC50 of 1 to 20 µM. To `Cc1oc2ccc(OCC3CC3(C)C)cc2c1C(=O)NC1CCNCC1(F)F` (single isomer, unassigned) [Cpd 033-En3, N-(3,3-difluoropiperidin-4-yl)-5-[(2,2-dimethylcyclopropyl)methoxy]-2-methyl-1-benzofuran-3-carboxamide] belongs under 1 µM. To `Cc1oc2ccc(OCC3CC3(C)C)cc2c1C(=O)NC1CCNCC1(F)F` (single isomer, unassigned) [Cpd 033-En4, N-(3,3-difluoropiperidin-4-yl)-5-[(2,2-dimethylcyclopropyl)methoxy]-2-methyl-1-benzofuran-3-carboxamide] belongs 1 to 20 µM; to `Cc1oc2ccc(OCC3CC3)cc2c1C(=O)NC1(C(N)=O)CCOC1` (single isomer, unassigned) [Cpd 035 - En1, N-(3-carbamoyloxolan-3-yl)-5-(cyclopropylmethoxy)-2-methyl-1-benzofuran-3-carboxamide], under 1 µM; to `Cc1oc2ccc(OCC3CC3)cc2c1C(=O)NC1(C(N)=O)CCOC1` (single isomer, unassigned) [Cpd 035 - En2, N-(3-carbamoyloxolan-3-yl)-5-(cyclopropylmethoxy)-2-methyl-1-benzofuran-3-carboxamide], under 1 µM. The value for `Cc1oc2ccc(OCC3(C(F)F)CC3)cc2c1C(=O)NC1(C(N)=O)CCOC1` (single isomer, unassigned) [Cpd 036 - En1, N-(3-carbamoyloxolan-3-yl)-5-{[1-(difluoromethyl)cyclopropyl]methoxy}-2-methyl-1-benzofuran-3-carboxamide] was 1 to 20 µM; that for `Cc1oc2ccc(OCC3(C(F)F)CC3)cc2c1C(=O)NC1(C(N)=O)CCOC1` (single isomer, unassigned) [Cpd 036 - En2, N-(3-carbamoyloxolan-3-yl)-5-{[1-(difluoromethyl)cyclopropyl]methoxy}-2-methyl-1-benzofuran-3-carboxamide] was under 1 µM.

What is called IC50 is the point on the concentration scale where inhibition reaches its midpoint. A high value points to weaker potency in that assay.
